The test system of data set [1] is S. epidermidis RP62A (planktonic cells, suspension). Briefly: MIC/MBC by microbroth dilution assay, S. epidermidis in suspension. Type of data set: cell-based. The following applies: Staphylococcus epidermidis, read-out: Minimum inhibitory concentration (MIC), planktonic cells.
Method: Test inocula for the suspension assay were prepared by suspending 10 colonies of S. epidermidis RP62A from an overnight culture on MHA into sterile PBS. The bacterial concentration was adjusted to 1×10*8 cfu/mL by diluting the culture with sterile PBS and measuring the OD at 570 nm (calibration curve for S. epidermidis cfu against OD at 570 nm were performed prior to the study, data not shown). The suspension was further diluted with MHB to obtain inocula containing 1×10*7 cfu/mL for synergy assays or 1×10*6 cfu/ml for testing antimicrobial activity of CHG and oils alone in suspension.
(§1) Aqueous chlorhexidine digluconate (CHG), tea tree oil (TTO), eucalyptus oil (EO) and thymol (all from Sigma-Aldrich) were diluted with MHB to obtain stock solution of 512 mg/mL for essential oils and 512 μg/mL for CHG. Five percent (v/v) dimethylsulphoxide (DMSO) (Sigma-Aldrich) was added to the stocks of essential oils to enhance their solubility of the oils in suspension.
Minimum inhibitory concentration (MIC) and minimum bacterial concentration (MBC) of aqueous CHG, TTO, EO and thymol were performed by microbroth dilution assay (NCCLS, 1997). […] Minimum bactericidal concentrations were determined by removing the suspension from the clear wells into MHA, spread with a sterile spreader and incubating the plates in air at 37° C. for 18-20 hours. […]
The subject of data set [2] is S. epidermidis RP62A biofilm. Briefly: Antimicrobial activity against S. epidermidis biofilm by ATP bioluminescence. Type of data set: cell-based, Staphylococcus epidermidis. The settings on record: for MBC/biofilm eradicating concentration / Minimum inhibitory concentration (MIC), bacteria growing in biofilm: S. epidermidis RP62A biofilm.
Method: S. epidermidis RP62A was used for its ability to produce a biofilm (Sadovskaya, et al., 2005). Bacteria were stored on beads (MicroBank, Pro-Lab Diagnostics, Cheshire, UK) at −70° C. until required. The ability of the strain to produce slime was confirmed by culturing the bacteria on Congo Red agar (Freeman, et al., 1989). For producing the microbial biofilms, the strains were first inoculated onto Muller-Hinton agar (MHA) (Oxoid, Basingstoke, UK) and incubated in air at 37° C. for 18-20 hours. Ten colonies from the culture plate were suspended into sterile phosphate buffered saline (PBS, Sigma, Dorset, UK). The bacterial concentration was adjusted to 1×10*8 cfu/mL by diluting the culture with sterile PBS and measuring the OD at 570 nm (calibration curve for S. epidermidis cfu against OD at 570 nm were performed prior to the study, data not shown). The suspension was further diluted with Muller-Hinton broth (MHB) supplemented with 2% (w/v) glucose (Fisher Scientific, Leicester, UK) to obtain inocula containing 1×10*5 cfu/mL. Two hundred μL of the bacterial suspension were aliquoted into wells of white walled, clear bottom, tissue culture treated 96-well microtitre plate (Corning Incorporated, NY, USA). The wells in the last column of the plate served as a control, and contained 200 μL of MHB supplemented with 2% (w/v) glucose only. Microtitre plates were incubated in air at 37° C. for 48 hours.
as §1
Prior to antimicrobial susceptibility studies, a standard curve for relative light units (RLU) versus bacterial cfu/mL was performed. S. epidermidis was grown with MHB supplemented with 2% (w/v) glucose in a 96-well microtitre plate as described previously to obtain bacterial biofilms. The wells of the microtitre plate with established bacterial biofilms were washed three times with sterile PBS and biofilms were removed from the wells by using “a scrape and wash method” (Adams, 2006). In brief, each well was filled with 200 μL of sterile PBS and, with a sterile pipette tip, the wall of each well was scraped approximately 10 times and the bottom scraped horizontally, vertically and cross-wise in each direction 10 times. The suspension was removed and collected into a sterile Eppendorf tube and the procedure repeated a further 4 times to obtain a final volume of 1000 μL per tube. The procedure was performed on three wells separately. The suspensions were mixed by vortexing and serial dilutions were performed in sterile PBS. 100 μL of the neat suspension and 10^−1 to 10^−5 dilutions were aliquoted onto wells of a white-walled, clear bottom microtitre plate. 100 microlitres of bactolyse were added into each well. The plate was then floated on a water bath sonicator and the plate was sonicated at 50 Hz for 30 minutes to lyse the cells and release the bacterial ATP. Twenty μL of luciferase where added into each well and luminescence read by a luminometer. The bacterial cfu in each suspension and dilution were established by the drop count method. The results were expressed as cfu against RLU.
Microtitre plates containing S. epidermidis RP62A biofilm were washed once with sterile PBS to remove any unbound bacteria. Antimicrobial agents were diluted with MHB to obtain CHG concentrations of 128 μg/mL to 0.25 μg/mL and essential oil concentrations of 256 mg/mL to 0.5 mg/mL. Two hundred and fifty microlitres of the antimicrobial compound were added in the wells in triplicate. Columns 11 and 12 served as controls with biofilm with saline alone and clear wells with MHB alone without bacterial biofilm.
The nature of data set [3]: Skin permeation study CHG + eucalyptus oil, Franz diffusion cells, receptor fluid by HPLC. Format: in vitro ADME. The following applies: 24 hour skin permeation, full thickness human skin, Franz cell. As to the method: Prior to the study full ethical committee approval and written consent from patients donating the tissue was obtained. […] Vertical diffusion cells (Franz diffusion cells), with an average diffusion surface area of 1.65 cm^2, were used for skin permeation studies. Phosphate buffered saline (PBS) was used as a receptor fluid, and left overnight in a receptor compartment (approximately volume 29 mls) with circulating water jacket set at 37° C. On the day of investigation the excised skin was thawed in PBS and cut into size to fit Franz diffusion cells (2.9 cm circle across). The skin samples were mounted into Franz diffusion cells and left for 1 hour in the diffusion cells to equilibrate with the receptor fluid prior to commencing the study. […] One millilitre of CHG solution of CHG/eucalyptus oil suspension was aliquoted in triplicate on the surface of the excised human skin on the donor compartment in Franz diffusion cells. The temperature was maintained constant by a circulating water jacket set at 37° C. and the receptor fluid was agitated continuously by magnetic stirrer bar. […] The samples were filtered and analysed by HPLC. Chlorhexidine digluconate was analysed quantitatively by HPLC. […] The samples were filtered and analysed with HPLC (Agilent 1100) with ODS-2 Hypersil column (5μ particle size) (Thermo Electron Corporation, UK) with a flow rate of 1.2 mls/min, detector wavelength 254 nm.

A short description of data set [4]: CHG penetration profile studies with EO and IPA (CHG extracted from skin sections). Type of data set: in vitro ADME, human. How it is done:
Following exposure, the skin samples were removed, washed with PBS and dried with an absorbent towel. The skin samples were immediately sprayed with a cryospray (Bright Instruments) and frozen at -20° C. Punch biopsies (7 mm in diameter) were cut from each frozen sample in triplicate and placed onto a cork disc in embedding compound (Bright Instruments, Cambs, UK), The frozen samples were sectioned horizontally with a microtome (Bright Instruments) into 20 μm sections (from the surface to a depth of 600 μm) and 30 μm sections (from depths of 600 to 1500 μm). Each section was placed into an Eppendorf tube and the total weight of each skin sample determined. Chlorhexidine was extracted from the skin by aliquoting 1 mL of mobile phase solution (75% methanol, 25% distilled water, 0.1% sodium heptane sulphonate, 0.1% diethylamine, pH 4) into skin samples and incubated in water bath at 60° C. for 1 h. The samples were mixed by vortexing and filtered prior to analysis by HPLC. The results were calculated as μg of CHG per mg of skin. Control skin (skin without treatment) was analysed parallel to the test samples. The assay was performed in triplicate. The data obtained were analysed by a student t-test using […] software (Graph pad software version 3.06) with a p<0.05 level of significance.

A short description of data set [5]: Skin permeation of CHG with EO and IPA, Franz diffusion cells, receptor compartment by HPLC. The settings on record: 24 h permeation study, skin from two donors; LOD 0.0157 μg/mL.
Method: The full thickness human skin was frozen on the day of excision and stored at −70° C. until required.
Skin permeation studies were performed with vertical Franz diffusion cells. The receptor compartment was filled with 29 mL of PBS and maintained at 37° C. by a circulating water jacket and agitated by stirring with a magnetic bar. Skin samples were thawed in PBS at room temperature, dried with an absorbent towel and mounted onto Franz diffusion cells with the stratum corneum (SC) uppermost facing the donor compartment. The surface area exposed to the test compound was 3.14 cm2 (2 cm in diameter). All entrapped air was removed between the skin and receptor fluid and the skin was left to equilibrate for 30 min to reach the skin surface temperature of 32° C.
Twenty percent (w/v) aqueous CHG was diluted with distilled water, IPA and EO to obtain the final concentrations of 2% (w/v) CHG in 70% (v/v) IPA and 2% (w/v) CHG with 5%, 10%, 20% and 50% (v/v) EO. Tween 80 [0.1% (v/v)] was added to the test solutions to enhance EO solubility in the vehicle. One millilitre of test solution was spread over the skin surface in the donor compartment and the compartment was sealed with a moisture resistant film to prevent evaporation. […] All samples were filtered through a 0.45 μm nylon filter (Kinesis, UK) and analysed by HPLC. […]

This note sets out measurements from patent US10946057B2, “Antiseptics” (INSIGHT HEALTH LIMITED, priority 2007, dated 2021).

Converted amounts (≈) assume the structure as drawn. Like-named read-outs stand apart in the source and are kept apart here.

`[H]/N=C(\N/C(=N/[H])NCCCCCCNC(=N)NC(=N)Nc1ccc(Cl)cc1)Nc1ccc(Cl)cc1` [CHG, chlorhexidine digluconate]: the MIC in data set [1] (agent alone) is 2 µg/mL. In data set [2], this molecule returned an MBC/biofilm eradicating concentration of 32 µg/mL. Also, the “Minimum inhibitory concentration (MIC), bacteria growing in biofilm” value in data set [2] (agent alone) is 8 µg/mL. In addition, the “MIC higher against bacteria growing in biofilm compared to planktonic cells” value in data set [2] (biofilm vs planktonic) is recorded as 2 fold. For the same molecule, the “Levels of CHG in the receptor fluid” value in data set [3] is on record as “did not show detectable levels”. For the same molecule, in data set [4] (2 min exposure, 300 to 1500 μm depths), the “Mean concentration of CHG (and SEM) within the tissues” value was 0.0048 μg/mg tissue. Moreover, in data set [4] (30 min exposure, depths of 300 μm to 1500 μm), the “Mean CHG concentration (and SEM)” value is on record as 0.0021 (±0.0004) μg/mg tissue. Further, the “CHG concentration extracted from the deeper layers of the skin” value in data set [4] (24 h exposure, 300 to 1500 μm depths) is recorded as 0.581 (±0.0466) μg per mg tissue. Moreover, in data set [4] (24 h exposure, top 100 μm), the “CHG concentration extracted from the top 100 μm layer” value was 7.880 μg per mg tissue. The “Chlorhexidine in the receptor compartment” value in data set [5] is reported as “not detected”.
With `Cc1ccc(C(C)C)c(O)c1` [Thymol, thymol], in data set [1] (oil alone), the MIC was determined as 4000 µg/mL (≈ 26.6 mM). The same molecule returned an MBC/biofilm eradicating concentration in data set [2] of 2000 µg/mL (≈ 13.3 mM). In data set [2] (oil alone), the “Minimum inhibitory concentration (MIC), bacteria growing in biofilm” value amounted to 1000 µg/mL (≈ 6.66 mM). Besides, the “MIC lower against biofilms compared to planktonic cells” value in data set [2] (biofilm vs planktonic) was determined as 2 fold.
